Data from US10597388B2, “Pyridazinone herbicides” (FMC CORPORATION, priority 2014, dated 2020).
Like-named read-outs stand apart in the source and are kept apart here.

Assays:
Format in all cases: in vivo
[1] = tested on: ducksalad (Heteranthera limosa); experiment: Test B flooded paddy test; conditions: Heteranthera limosa, 360 h; 250 g ai/ha, Flood; visual rating on scale of 0 to 100 where 0 is no effect and 100 is complete control; 13 to 15 d after treatment; read-out: Plant response rating, Ducksalad
Summary of the method: (§1)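 Plants at the 2-leaf stage were flooded to 3 cm above soil, and test compounds were applied directly into the paddy water, which was held at that depth throughout. After 13 to 15 d in a greenhouse, injury was rated visually against untreated controls on a 0–100 scale (0 no effect, 100 complete control).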

rice (Oryza sativa) = experiment: Test B flooded paddy test; conditions: Oryza sativa, 360 h; 250 g ai/ha, Flood; visual rating on scale of 0 to 100 where 0 is no effect and 100 is complete control; 13 to 15 d after treatment; read-out: Plant response rating, Rice
Summary of the method: as §1

[2] = tested on: sedge, umbrella (small-flower umbrella sedge, Cyperus difformis); experiment: Test B flooded paddy test; conditions: Cyperus difformis, 360 h; 250 g ai/ha, Flood; visual rating on scale of 0 to 100 where 0 is no effect and 100 is complete control; 13 to 15 d after treatment; read-out: Plant response rating, Sedge, Umbrella
Summary of the method: as §1

[3] = tested on: barnyardgrass (Echinochloa crus-galli); experiment: Test B flooded paddy test; conditions: Echinochloa crus-galli, 360 h; 250 g ai/ha, Flood; visual rating on scale of 0 to 100 where 0 is no effect and 100 is complete control; 13 to 15 d after treatment; read-out: Plant response rating, Barnyardgrass
Summary of the method: as §1

[4] = tested on: pigweed (Amaranthus retroflexus); experiment: Test A greenhouse herbicide test, pre- and postemergence; conditions: for pest or weed control at 125 g/ha / pest or weed control at 500 g/ha: Amaranthus retroflexus, 240 h
Summary of the method: (§2)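 Seeds sown in loam–sand blend got a preemergence directed soil spray of compound in non-phytotoxic solvent with surfactant. Postemergence treatment was given at 2–10 cm, one- to two-leaf stage. After ~10 d in greenhouse, injury was rated visually vs untreated controls, 0 (no effect) to 100 (complete control).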

[5] = tested on: barnyardgrass (Echinochloa crus-galli); experiment: as above; conditions: for pest or weed control at 125 g/ha / pest or weed control at 500 g/ha: Echinochloa crus-galli, 240 h
Summary of the method: as §2

[6] = tested on: chickweed (common chickweed, Stellaria media); experiment: Test C greenhouse herbicide test, postemergence
Summary of the method: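 Ratings are visual scores from 0 (no effect) to 100 (complete control), made against controls 13–15 d after treatment. Postemergence sprays were applied in the greenhouse to plants 2–18 cm tall (1- to 4-leaf stage) in peat-moss/vermiculite potting medium.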

[7] = post-emergence, Postemergence, 125 g ai/ha, visual rating after approx. 10 d, 0 to 100 scale (0 no effect, 100 complete control), read-out: Plant response rating, Pigweed
[8] = post-emergence, Postemergence, 500 g ai/ha, 0 to 100 scale, 0 is no effect, 100 is complete control, read-out: Pigweed plant response rating
[9] = pre-emergence, Preemergence, 125 g ai/ha, 0 to 100 scale where 0 is no effect and 100 is complete control, read-out: Pigweed plant response rating
[10] = pre-emergence, Preemergence, 500 g ai/ha, 0 to 100 scale, 0 no effect, 100 complete control, read-out: Plant response rating, Pigweed
[11] = post-emergence, Postemergence, 125 g ai/ha, visual rating after approx. 10 d, 0 to 100 scale (0 no effect, 100 complete control), read-out: Plant response rating, Barnyardgrass
[12] = post-emergence, Postemergence, 500 g ai/ha, 0 to 100 scale, 0 is no effect, 100 is complete control, read-out: Barnyardgrass plant response rating
[13] = pre-emergence, Preemergence, 125 g ai/ha, 0 to 100 scale where 0 is no effect and 100 is complete control, read-out: Barnyardgrass plant response rating
[14] = pre-emergence, Preemergence, 500 g ai/ha, 0 to 100 scale, 0 no effect, 100 complete control, read-out: Plant response rating, Barnyardgrass
[15] = Postemergence, 31 g ai/ha, 0 to 100 scale (0 no effect, 100 complete control)
[16] = Postemergence, 125 g ai/ha, scale 0 to 100, 0 is no effect, 100 is complete control
[17] = Postemergence, 250 g ai/ha, scale 0 to 100, 0 no effect, 100 complete control, 13 to 15 d
[18] = postemergence, 62 g ai/ha, scale 0 to 100, 0 no effect, 100 complete control
[19] = Postemergence, 125 g ai/ha, visual rating after approx. 10 d, 0 to 100 scale (0 no effect, 100 complete control)
[20] = Postemergence, 500 g ai/ha, 0 to 100 scale, 0 is no effect, 100 is complete control
[21] = Preemergence, 125 g ai/ha, 0 to 100 scale where 0 is no effect and 100 is complete control
[22] = Preemergence, 500 g ai/ha, 0 to 100 scale, 0 no effect, 100 complete control
[23] = Postemergence, 125 g ai/ha, 0 to 100 scale where 0 is no effect and 100 is complete control
[24] = Preemergence, 500 g ai/ha, 0 to 100 scale where 0 is no effect and 100 is complete control
[25] = Postemergence, 31 g ai/ha, scale 0 to 100 (0 no effect, 100 complete control)
[26] = Postemergence, 500 g ai/ha, visual rating after approx. 10 d, 0 to 100 scale (0 no effect, 100 complete control)

SMILES | Chickweed plant response rating [6, 15] | Plant response rating, Chickweed [6, 16] | Plant response rating, Chickweed [6, 17] | Chickweed plant response rating [6, 18] | Pigweed plant response rating [4, 20] | Pigweed plant response rating [4, 21] | Barnyardgrass plant response rating [5, 20] | Barnyardgrass plant response rating [5, 21] | Plant response rating, Pigweed [4, 23] | Plant response rating, Barnyardgrass [5, 23] | Plant response rating, Pigweed [4, 24] | Plant response rating, Barnyardgrass [5, 24] | Plant response rating, Chickweed [6, 25] | Plant response rating, Pigweed [4, 26] | other results
Cc1nn(C)c(=O)c(-c2c(C)oc3c(C)cccc23)c1O [Compound 9, 4-(2,7-dimethyl-3-benzofuranyl)-5-hydroxy-2,6-dimethyl-3(2H)-pyridazinone] | – | – | – | – | – | – | – | – | – | – | – | – | – | – | pest or weed control at 250 g/ha [1]: 0%; plant injury at 250 g/ha (rice (Oryza sativa)): 0%; pest or weed control at 250 g/ha [2]: 0%; pest or weed control at 250 g/ha [3]: 0%; pest or weed control at 125 g/ha [4, 7]: 0%; pest or weed control at 500 g/ha [4, 8]: 0%; pest or weed control at 125 g/ha [4, 9]: 0%; pest or weed control at 500 g/ha [4, 10]: 0%; pest or weed control at 125 g/ha [5, 11]: 10%; pest or weed control at 500 g/ha [5, 12]: 90%; pest or weed control at 125 g/ha [5, 13]: 50%; pest or weed control at 500 g/ha [5, 14]: 100%
Cc1cc(C)c2oc(C)c(-c3c(O)c(C)nn(C)c3=O)c2c1 [Compound 12, 5-hydroxy-2,6-dimethyl-4-(2,5,7-trimethyl-3-benzofuranyl)-3(2H)-pyridazinone] | – | – | – | – | – | – | – | – | – | – | – | – | – | – | pest or weed control at 250 g/ha [1]: 30%; plant injury at 250 g/ha (rice (Oryza sativa)): 0%; pest or weed control at 250 g/ha [2]: 0%; pest or weed control at 250 g/ha [3]: 0%; pest or weed control at 125 g/ha [4, 7]: 30%; pest or weed control at 500 g/ha [4, 8]: 50%; pest or weed control at 125 g/ha [4, 9]: 10%; pest or weed control at 500 g/ha [4, 10]: 60%; pest or weed control at 125 g/ha [5, 11]: 0%; pest or weed control at 500 g/ha [5, 12]: 40%; pest or weed control at 125 g/ha [5, 13]: 20%; pest or weed control at 500 g/ha [5, 14]: 80%
CC(=O)Oc1c(C)nn(C)c(=O)c1-c1c(C)oc2c(C)cccc12 [Compound 15, 5-(acetyloxy)-4-(2,7-dimethyl-3-benzofuranyl)-2,6-dimethyl-3(2H)-pyridazinone] | – | – | – | – | – | – | – | – | – | – | – | – | – | – | pest or weed control at 250 g/ha [1]: 20%; plant injury at 250 g/ha (rice (Oryza sativa)): 0%; pest or weed control at 250 g/ha [2]: 0%; pest or weed control at 250 g/ha [3]: 0%; pest or weed control at 125 g/ha [4, 7]: 0%; pest or weed control at 500 g/ha [4, 8]: 0%; pest or weed control at 125 g/ha [4, 9]: 0%; pest or weed control at 500 g/ha [4, 10]: 0%; pest or weed control at 125 g/ha [5, 11]: 70%; pest or weed control at 500 g/ha [5, 12]: 90%; pest or weed control at 125 g/ha [5, 13]: 20%; pest or weed control at 500 g/ha [5, 14]: 90%
CCOC(=O)Oc1c(C)nn(C)c(=O)c1-c1c(CC)ccc2ccccc12 [Compound 37] | 90 | 90 | 95 | 90 | 100 | 100 | 90 | 30 | – | – | – | – | – | – | Plant response rating, Pigweed [4, 19]: 100; Plant response rating, Pigweed [4, 22]: 100; Plant response rating, Barnyardgrass [5, 19]: 60; Plant response rating, Barnyardgrass [5, 22]: 90
COc1ccc2ccccc2c1-c1c(O)c(C)nn(C)c1=O [Compound 40] | 55 | 90 | – | 60 | 100 | 90 | 60 | 10 | 80 | 10 | – | – | – | – | Plant response rating, Chickweed ([6]; Postemergence, 16 g ai/ha, scale 0 to 100 (0 no effect, 100 complete control)): 50; Plant response rating, Pigweed [4, 22]: 100; Plant response rating, Barnyardgrass [5, 22]: 50
Cc1ccc(-c2c(O)c(Br)nn(C)c2=O)c2ccccc12 [Compound 52] | 95 | 98 | 100 | 90 | 30 | 10 | 50 | 50 | 10 | 10 | – | – | – | – | Plant response rating, Pigweed [4, 22]: 60; Plant response rating, Barnyardgrass [5, 22]: 70
CC(=O)Oc1c(C)nn(C)c(=O)c1-c1ccc(F)c2ccccc12 [Compound 90] | 90 | 95 | 98 | 90 | 100 | 100 | 100 | 60 | 100 | 80 | 100 | 100 | – | – | –
Cc1nn(C)c(=O)c(-c2c(C)sc3ccc(Cl)cc23)c1O [Compound 104] | – | 100 | 100 | 98 | – | 100 | 100 | 80 | 90 | 70 | 100 | 100 | 90 | 90 | –
CCCC(=O)Oc1c(C)nn(C)c(=O)c1-c1c(C)sc2c(C)cc(C)cc12 [Compound 106] | – | 95 | 98 | 98 | – | 100 | 90 | 80 | 90 | 70 | 100 | 100 | 95 | 90 | –
CCC(=O)Oc1c(C)nn(C)c(=O)c1-c1c(C)sc2ccc(Cl)cc12 [Compound 109] | – | 95 | 100 | 95 | – | 100 | 90 | 20 | 90 | 30 | 100 | 100 | 80 | 90 | –
CC(=O)Oc1c(Br)nn(C)c(=O)c1-c1c(C)ccc2ccccc12 [Compound 129] | – | – | 100 | – | – | 100 | – | 90 | 90 | 90 | 100 | 100 | 98 | 100 | Chickweed plant response rating ([6]; Postemergence, 62 g ai/ha, 0 to 100 scale (0 no effect, 100 complete control)): 98; Chickweed plant response rating ([6]; postemergence, 125 g ai/ha, scale 0 to 100, 0 no effect, 100 complete control): 100; Plant response rating, Barnyardgrass [5, 26]: 100
